Measured values as given in article PMC9963438, “Emerging Effects of Resveratrol Derivatives in Cells Involved in Oral Wound Healing: A Preliminary Study” (International Journal of Molecular Sciences, 2023).

How the values were obtained:
[1] = tested on: human gingival fibroblasts (HGFs); test: MTT cytocompatibility screening on HGFs, 24 h; assay type: cell-based; conditions: for HGFs metabolic activity / cell viability (MTT): 10 µM, vs control (DMSO) and RSV; for HGFs cell viability (MTT): vs control and RSV
eNOS mRNA in HUVECs = test: RT-qPCR of eNOS in HUVECs; assay type: cell-based, human; conditions: RSV 10 µM, 48 and 72 h, time-dependent manner
Procedure: Total RNA was isolated using Trifast reagent (EuroClone) according to the manufacturer instructions from 3 × 10^5 cells/well treated with increasing concentrations of 1d and 1h for 48 h and 72 h. Complementary DNA (cDNA) was obtained using GoTaq® 2 Step RT-qPCR Kit (Promega, Madison, WI, USA) in accordance with the manufacturer’s instructions. RT-qPCR was carried out using SYBR Green (Promega) on the Quant Studio 7 Pro Real-Time PCR System (ThermoFisher, Waltham, MA, USA). The results were normalized to glyceraldehyde 3-phoshate dehydrogenase (GAPDH) for HUVECs and HGFs and to β-actin (βACT) for HOBs using the 2^−ΔΔCt method.

HGFs = test: Toluidine blue staining, morphology and confluence of HGFs; assay type: cell-based, human; conditions: 72 h; 1d and 1h 5 µM, RSV 10 µM
Procedure: The influence of 1d and 1h was evaluated on cells density and morphology by toluidine-blue staining. A total of 2 × 10^4 cells/well were cultured in 24-well plates and were incubated at 37 °C and 5% CO2 with tested compounds at 5 µM. After 48 and 72 h, adherent cells were fixed with 70% cold ethanol and stained with 1% toluidine blue and 1% borax (Sigma Aldrich, St. Louis, MO, USA). Cells were then observed by an inverted microscope connected with a camera at 40×, 100×, and 200× magnifications (Leica, Wild Heer-brugg, Wetzlar, Germany).

Compound | HGFs metabolic activity / cell viability (MTT) [1] | HGFs cell viability (MTT) ([1]; 50 µM) | HGFs cell viability (MTT) ([1]; 20 µM) | eNOS mRNA expression (eNOS mRNA in HUVECs) | HGFs morphology (HGFs)
Cc1ccc(S(=O)(=O)Nc2ccc(/C=C/c3ccccc3)cc2)cc1[N+](=O)[O-] [1c] | did not show any significant difference | statistically reduce HGF viability | – | – | –
N#Cc1ccc(S(=O)(=O)Nc2ccc(/C=C/c3ccccc3)cc2)cc1 [1e] | significantly decreased the HGFs metabolic activity | statistically reduce HGF viability | statistically significant reduction in cell viability | – | –
O=[N+]([O-])c1cccc(S(=O)(=O)Nc2ccc(/C=C/c3ccccc3)cc2)c1 [1b] | significantly decreased the HGFs metabolic activity | statistically reduce HGF viability | – | – | –
Oc1ccc(/C=C/c2cc(O)cc(O)c2)cc1 [RSV, trans-3,5,4′-trihydroxystilbene, reference compound] | – | – | – | induced eNOS mRNA expression | appeared as irregular triangles, polygons, and other shapes
COc1cc(OC)cc(S(=O)(=O)Nc2ccc(/C=C/c3ccccc3)cc2)c1 [1f] | significantly decreased the HGFs metabolic activity | statistically reduce HGF viability | – | – | –
CS(=O)(=O)Nc1ccc(/C=C/c2ccccc2)cc1 [1g] | significantly decreased the HGFs metabolic activity | statistically reduce HGF viability | statistically significant reduction in cell viability | – | –
O=S(=O)(Cc1ccccc1)Nc1ccc(/C=C/c2ccccc2)cc1 [1i] | did not show any significant difference | statistically reduce HGF viability | statistically significant reduction in cell viability | – | –
O=S(=O)(Nc1ccc(/C=C/c2ccccc2)cc1)c1ccccc1 [1a] | did not show any significant difference | no statistically significant differences | slight increase in HGF viability | – | –
